One assay has as its target T1, p-Akt2 in WM115 cells (Homo sapiens, UniProt P31751).
T1 construct: SureFire assays to detect cellular p-Akt1, p-Akt2 and p-Akt3 levels in WM115 cells (Akt2/3) and LNCaP cells (Akt1); endogenous in cells; host or cells: WM115 (ECACC 91061232), insulin-stimulated
Put plainly: Phospho-Akt cellular SureFire assay, p-Akt2 in WM115 cells. The assay is classed as cell-based. The following applies: insulin stimulated, read-out: Biological Assay 2 IC50 (nM) Akt2 WM115. A digest of the protocol:
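WM115 cells in 0.1% FBS medium stimulated 10 min with 100 nM insulin, then exposed to compound for 15 min at 37° C (0.3% DMSO final). Lysates assayed by AlphaScreen with anti-(pThr308)Akt and isoform-specific total Akt2 antibodies; IC50 from 4-parameter fit.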

For a further assay, the target named is T2, Akt3 (Homo sapiens, UniProt Q9Y243).
T2 construct: unspecified tag, removed (detagged) (cleaved yes); purchased SignalChem and Proteros (Akt3); Merck Millipore (PDK1) 14-452 (PDK1); none given for Akt3
T2 sequence (Q9Y243 whole entry): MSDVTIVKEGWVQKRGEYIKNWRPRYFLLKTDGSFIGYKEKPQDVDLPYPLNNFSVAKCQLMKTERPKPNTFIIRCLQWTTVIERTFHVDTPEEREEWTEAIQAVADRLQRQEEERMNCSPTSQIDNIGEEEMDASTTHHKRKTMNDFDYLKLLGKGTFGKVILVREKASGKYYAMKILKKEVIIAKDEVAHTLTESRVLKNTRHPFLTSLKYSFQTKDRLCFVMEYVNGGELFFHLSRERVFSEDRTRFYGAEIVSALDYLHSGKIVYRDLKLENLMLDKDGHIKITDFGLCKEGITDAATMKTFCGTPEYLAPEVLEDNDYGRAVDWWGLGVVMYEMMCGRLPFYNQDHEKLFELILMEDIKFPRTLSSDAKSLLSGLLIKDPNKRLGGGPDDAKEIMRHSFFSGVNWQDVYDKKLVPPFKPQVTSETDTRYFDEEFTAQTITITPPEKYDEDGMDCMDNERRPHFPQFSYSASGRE
Put plainly: Akt activation assay (PDK1-mediated activation, LANCE Ultra crosstide TR-FRET), Akt3. In kind it is biochemical. The following applies: read-out: Biological Assay 1 IC50 (nM) Akt3. A digest of the protocol: (§1)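 Human Akt1, Akt2 or Akt3 (SignalChem: 5, 15, 3 nM; Proteros: 5 nM each) was preincubated with compound, then activated by 5 nM PDK1 on PtdIns(3,4,5)P3/DOPS/DOPC vesicles with 100 µM ATP and 100 nM ULight-crosstide (HEPES pH 7.5, 1% DMSO) for 30 min. Product was detected by Eu-anti-phospho-crosstide TR-FRET (665/615 nm), with IC50 from a 4-parameter fit.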

A further assay deals with T3, p-Akt1 in LNCaP cells (Homo sapiens, UniProt P31749).
T3 construct: SureFire assays to detect cellular p-Akt1, p-Akt2 and p-Akt3 levels in WM115 cells (Akt2/3) and LNCaP cells (Akt1); endogenous in cells; host or cells: LNCaP (ECACC 89110211)
T3 sequence (P31749 whole entry): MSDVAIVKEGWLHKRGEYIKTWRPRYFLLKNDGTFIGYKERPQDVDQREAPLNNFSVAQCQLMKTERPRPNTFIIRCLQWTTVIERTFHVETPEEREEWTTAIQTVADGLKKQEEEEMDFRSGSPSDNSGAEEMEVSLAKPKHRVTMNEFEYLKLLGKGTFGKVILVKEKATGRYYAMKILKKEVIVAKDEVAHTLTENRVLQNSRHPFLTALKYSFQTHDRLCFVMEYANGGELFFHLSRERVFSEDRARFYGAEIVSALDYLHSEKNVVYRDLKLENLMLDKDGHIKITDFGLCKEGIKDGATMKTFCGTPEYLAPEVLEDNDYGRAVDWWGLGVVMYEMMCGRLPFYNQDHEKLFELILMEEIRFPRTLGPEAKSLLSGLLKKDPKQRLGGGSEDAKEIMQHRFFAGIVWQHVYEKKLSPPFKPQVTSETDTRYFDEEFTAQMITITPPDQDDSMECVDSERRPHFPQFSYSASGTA
Put plainly: Phospho-Akt cellular SureFire assay, p-Akt1 in LNCaP cells. The following applies: read-out: Biological Assay 2 IC50 (nM) Akt1 LNCaP. In kind it is cell-based. A digest of the protocol:
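LNCaP cells, 5×10^4/well, seeded overnight, switched to 0.1% FBS medium without insulin stimulation, then compound for 15 min at 37 °C (0.3% DMSO). Lysate p-Akt1 (pThr308) by AlphaScreen SureFire, two 2 h incubations at room temperature; IC50 by 4-parameter fit.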

The target of the next assay is T4, p-Akt3 in WM115 cells (Homo sapiens, UniProt Q9Y243).
T4 construct: SureFire assays to detect cellular p-Akt1, p-Akt2 and p-Akt3 levels in WM115 cells (Akt2/3) and LNCaP cells (Akt1); endogenous in cells; host or cells: WM115 (ECACC 91061232), insulin-stimulated
T4 sequence (Q9Y243 whole entry): as the sequence (Q9Y243 whole entry) above
The assay is described as follows: Phospho-Akt cellular SureFire assay, p-Akt3 in WM115 cells. In kind it is cell-based. As to conditions: insulin stimulated, read-out: Biological Assay 2 IC50 (nM) Akt3 WM115. A digest of the protocol:
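WM115 cells were serum-reduced to 0.1% FBS, stimulated with 100 nM insulin for 10 min, then exposed to compound (0.3% DMSO) for 15 min at 37 °C. Lysates were assayed for Thr308-phosphorylated Akt3 by AlphaScreen SureFire using an isoform-specific total Akt3 capture antibody. IC50 was derived from a 4-parameter fit.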

The target in the next assay is T5, Akt1 (Homo sapiens, UniProt P31749).
T5 construct: unspecified tag, removed (detagged) (cleaved yes); purchased SignalChem and Proteros (Akt1); Merck Millipore (PDK1) 14-452 (PDK1); none given for Akt1
T5 sequence (P31749 whole entry): as the sequence (P31749 whole entry) above
The assay is described as follows: Akt activation assay (PDK1-mediated activation, LANCE Ultra crosstide TR-FRET), Akt1. In kind it is biochemical. The following applies: read-out: Biological Assay 1 IC50 (nM) Akt1. The essentials: as §1
Background: TR-FRET usually uses a lanthanide donor and a delayed reading to cut background.

In another assay the target is T6, Akt2 (Homo sapiens, UniProt P31751).
T6 construct: unspecified tag, removed (detagged) (cleaved yes); purchased SignalChem and Proteros (Akt2); Merck Millipore (PDK1) 14-452 (PDK1); none given for Akt2
T6 sequence (P31751 whole entry): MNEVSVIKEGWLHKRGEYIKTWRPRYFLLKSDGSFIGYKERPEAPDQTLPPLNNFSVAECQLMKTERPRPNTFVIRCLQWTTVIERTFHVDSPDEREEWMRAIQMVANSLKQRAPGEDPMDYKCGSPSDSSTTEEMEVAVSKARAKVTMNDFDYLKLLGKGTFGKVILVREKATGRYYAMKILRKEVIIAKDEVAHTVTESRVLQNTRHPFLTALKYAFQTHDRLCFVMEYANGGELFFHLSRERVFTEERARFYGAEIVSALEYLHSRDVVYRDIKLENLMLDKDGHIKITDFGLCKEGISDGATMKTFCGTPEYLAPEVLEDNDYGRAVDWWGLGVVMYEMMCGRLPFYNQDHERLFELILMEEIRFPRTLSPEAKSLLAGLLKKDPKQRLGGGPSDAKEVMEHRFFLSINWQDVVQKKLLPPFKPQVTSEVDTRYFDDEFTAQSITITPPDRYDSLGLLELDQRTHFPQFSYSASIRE
The assay is described as follows: Akt activation assay (PDK1-mediated activation, LANCE Ultra crosstide TR-FRET), Akt2. The following applies: read-out: Biological Assay 1 IC50 (nM) Akt2. The assay is classed as biochemical. The essentials:
as §1

The IC50 is the concentration that gives 50% inhibition.

SMILES strings stand for the structures.

T1 sequence (P31751 whole entry): as above

Regarding `COC(=O)N(C)[C@H]1CC[C@H](CC(=O)Nc2cc(-c3ccsc3)c(-c3ccc([C@]4(N)C[C@H](F)C4)cc3)nn2)CC1` [Example A70, Methyl (trans-4-(2-((6-(4-(trans-1-amino-3-fluorocyclobutyl)phenyl)-5-(thiophen-3-yl)pyridazin-3-yl)amino)-2-oxoethyl)cyclohexyl)(methyl)carbamate], the half-inhibitory concentration (IC50) at p-Akt2 in WM115 cells was over 28000 nM; on Akt3 it was 36 nM; on p-Akt1 in LNCaP cells it was over 30000 nM; on p-Akt3 in WM115 cells it was 960 nM; on Akt1, over 30000 nM; at Akt2, 1100 nM.
On to `NC1(c2ccc(-c3cnc(NC(=O)C[C@H]4CC[C@H](N5CCCC5=O)CC4)cc3-c3ccccc3)cc2)CCC1` [Example A71, N-(5-(4-(1-aminocyclobutyl)phenyl)-4-phenylpyridin-2-yl)-2-(trans-4-(2-oxopyrrolidin-1-yl)cyclohexyl)acetamide], for which the IC50 on p-Akt2 in WM115 cells was 1500 nM; on Akt3 it was 15 nM; on p-Akt1 in LNCaP cells it was 3400 nM; at p-Akt3 in WM115 cells, 130 nM; at Akt1, 7500 nM; at Akt2, 110 nM.
On to `CCOC(=O)N(C)[C@H]1CC[C@H](CC(=O)Nc2cc(-c3ccccc3)c(-c3ccc([C@]4(N)C[C@](C)(O)C4)cc3)cn2)CC1` [Example A73, Ethyl (trans-4-(2-((5-(4-(trans-1-amino-3-hydroxy-3-methylcyclobutyl)phenyl)-4-phenylpyridin-2-yl)amino)-2-oxoethyl)cyclohexyl)(methyl)carbamate], for which the IC50 on p-Akt2 in WM115 cells was 1200 nM; at Akt3, 7 nM; at p-Akt1 in LNCaP cells, 2900 nM; at p-Akt3 in WM115 cells it was 77 nM; on Akt1, 8800 nM; on Akt2 it was 130 nM.
In the case of `CN(C(=O)C1CC1)[C@H]1CC[C@H](CC(=O)Nc2cc(-c3ccccc3)c(-c3ccc([C@]4(N)C[C@](C)(O)C4)cc3)cn2)CC1` [Example A75, N-(trans-4-(2-((5-(4-(trans-1-amino-3-hydroxy-3-methylcyclobutyl)phenyl)-4-phenylpyridin-2-yl)amino)-2-oxoethyl)cyclohexyl)-N-methylcyclopropanecarboxamide], the IC50 on p-Akt2 in WM115 cells came to 320 nM; on Akt3, 6 nM; at p-Akt1 in LNCaP cells, 1400 nM; at p-Akt3 in WM115 cells, 13 nM; on Akt1 it was 12000 nM; on Akt2 it was 140 nM.
In the case of `CN(C(=O)C1CC1)[C@H]1CC[C@H](CC(=O)Nc2cc(-c3ccccc3)c(-c3ccc([C@]4(N)C[C@](C)(O)C4)cc3)nn2)CC1` [Example A78, N-(trans-4-(2-((6-(4-(trans-1-amino-3-hydroxy-3-methylcyclobutyl)phenyl)-5-phenylpyridazin-3-yl)amino)-2-oxoethyl)cyclohexyl)-N-methylcyclopropanecarboxamide], the IC50 was found to be 370 nM on p-Akt2 in WM115 cells; 4 nM on Akt3; 1400 nM on p-Akt1 in LNCaP cells; 8 nM at p-Akt3 in WM115 cells; 1900 nM at Akt1; 71 nM on Akt2.
As to `CC(C)C(=O)N(C)[C@H]1CC[C@H](CC(=O)Nc2cc(-c3ccccc3)c(-c3ccc([C@]4(N)C[C@](C)(O)C4)cc3)nn2)CC1` [Example A79, N-(trans-4-(2-((6-(4-(trans-1-amino-3-hydroxy-3-methylcyclobutyl)phenyl)-5-phenylpyridazin-3-yl)amino)-2-oxoethyl)cyclohexyl)-N-methylisobutyramide], the IC50 at p-Akt2 in WM115 cells amounted to 370 nM; on Akt3, 4 nM; at p-Akt1 in LNCaP cells, 1900 nM; at p-Akt3 in WM115 cells, 10 nM; at Akt1, 3900 nM; at Akt2, 63 nM.

(Values after patent publication US10336702B2, “Pharmaceutically active compounds” (BERGENBIO ASA, priority 2015, dated 2019).)
